The record followed here is US7238813B2, “Chemical compounds” (Smithkline Beecham Corporation, priority 2000, dated 2007).

Counter-ions that a name gives are not always drawn.

Experiment [1] has as its target T1, GST-TIE2 (intracellular domains of human TIE2) (Homo sapiens, UniProt Q02763).
T1 construct: made in house
Kind of experiment: TIE-2 enzyme assay (TIE2-E), LANCE method. The following applies: 80 uM ATP. Type of experiment: biochemical. The method in brief: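 Baculovirus GST-TIE2 (human intracellular domain, aa 762–1104) preactivated 30 min at RT with 2 mM ATP, then reacted 30 min at RT with 1 μM D1-15 peptide, 80 uM ATP, 10 mM MgCl2, pH 7.4, 2.4% DMSO. EDTA-stopped; LANCE Eu-anti-pTyr/streptavidin-APC read-out. IC50 by nonlinear regression, reported as pIC50.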

In experiment [2] the target is T2, TIE2 intracellular domain/c-fms extracellular domain (TIE2/c-fms) chimeric protein expressing mouse 3T3 cells (Homo sapiens, UniProt Q02763).
T2 construct: a TIE2 intracellular domain/c-fms extracellular domain (TIE2/c-fms) chimeric protein; expressed in transfected cells; host or cells: mouse 3T3 cells
T2 sequence (Q02763 770-1124 limits assumed, change not shown): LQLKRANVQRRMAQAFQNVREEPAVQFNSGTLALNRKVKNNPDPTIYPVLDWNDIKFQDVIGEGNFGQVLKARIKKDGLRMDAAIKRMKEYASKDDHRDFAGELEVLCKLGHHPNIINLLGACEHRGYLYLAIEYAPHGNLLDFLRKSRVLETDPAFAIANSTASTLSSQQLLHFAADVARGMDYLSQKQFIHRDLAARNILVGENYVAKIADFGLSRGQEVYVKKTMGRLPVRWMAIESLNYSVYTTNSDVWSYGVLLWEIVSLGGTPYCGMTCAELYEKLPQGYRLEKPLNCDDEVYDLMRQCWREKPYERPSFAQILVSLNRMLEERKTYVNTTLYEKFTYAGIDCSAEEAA
Nature of the experiment: TIE-2 autophosphorylation assay (TIE2-C), ELISA. Type of experiment: cell-based. The settings on record: TIE2/c-fms 3T3 cells, MCSF activation. In short, it runs like this: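 Mouse 3T3 cells expressing TIE2 intracellular/c-fms extracellular chimera treated with compound for 1 hr in serum-free DMEM (0.1% DMSO), then stimulated with MCSF. Lysates captured on anti-c-fms plates overnight at 4 °C; phosphotyrosine detected by biotin-PT66/HRP-streptavidin, OD450. IC50 by nonlinear regression, reported as pIC50.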

The target of experiment [3] is T3, GST-VEGFR2 (Homo sapiens, UniProt P35968).
T3 construct: GST-VEGFR2, baculovirus expressed recombinant constructs of the intracellular domains of human TIE2 tagged by GST; made in house
T3 sequence (P35968 786-1356 limits assumed): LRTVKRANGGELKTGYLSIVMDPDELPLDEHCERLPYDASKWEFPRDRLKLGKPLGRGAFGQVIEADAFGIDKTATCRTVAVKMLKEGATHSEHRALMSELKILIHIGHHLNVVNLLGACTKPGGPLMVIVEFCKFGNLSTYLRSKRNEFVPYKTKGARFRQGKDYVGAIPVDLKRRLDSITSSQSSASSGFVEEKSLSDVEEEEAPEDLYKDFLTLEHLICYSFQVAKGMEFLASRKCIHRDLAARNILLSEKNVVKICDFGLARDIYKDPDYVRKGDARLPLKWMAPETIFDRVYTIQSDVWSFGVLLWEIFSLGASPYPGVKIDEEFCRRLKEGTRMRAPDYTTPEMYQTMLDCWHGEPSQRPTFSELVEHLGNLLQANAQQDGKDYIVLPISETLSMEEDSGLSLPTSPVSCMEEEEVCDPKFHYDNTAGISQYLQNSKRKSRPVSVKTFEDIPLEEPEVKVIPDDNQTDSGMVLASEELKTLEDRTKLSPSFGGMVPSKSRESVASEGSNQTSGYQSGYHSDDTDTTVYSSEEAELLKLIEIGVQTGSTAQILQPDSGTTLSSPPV
Nature of the experiment: VEGF-R2 enzyme assay (VEGF-E), LANCE method. Type of experiment: biochemical. The settings on record: 75 μM ATP.

Experiment [4] has as its system Human umbilical cord endothelial cells (HUVEC). Nature of the experiment: VEGF-driven cellular proliferation assay: BrdU incorporation assay (VEGF-C). It is filed as cell-based. Also noted: key to VEGF-C: + = pIC50 of 5.0–6.0; ++ = pIC50 of 6.0–7.0; +++ = pIC50 of > 7.0; − = a negative or inconclusive result. The following applies: for IC50: Homo sapiens. The method in brief: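 HUVEC (≤6 passages) were plated at 5000 cells/well and exposed to compound 30 min in serum-free M199 containing 0.6% DMSO. Medium with 20 ng/ml VEGF was then added for 24 h, followed by a 24 h pulse with 10 μM BrdU and ELISA read at 450 nm. IC50 from nonlinear regression of percent inhibition was expressed as pIC50.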

T1 sequence (Q02763 762-1104): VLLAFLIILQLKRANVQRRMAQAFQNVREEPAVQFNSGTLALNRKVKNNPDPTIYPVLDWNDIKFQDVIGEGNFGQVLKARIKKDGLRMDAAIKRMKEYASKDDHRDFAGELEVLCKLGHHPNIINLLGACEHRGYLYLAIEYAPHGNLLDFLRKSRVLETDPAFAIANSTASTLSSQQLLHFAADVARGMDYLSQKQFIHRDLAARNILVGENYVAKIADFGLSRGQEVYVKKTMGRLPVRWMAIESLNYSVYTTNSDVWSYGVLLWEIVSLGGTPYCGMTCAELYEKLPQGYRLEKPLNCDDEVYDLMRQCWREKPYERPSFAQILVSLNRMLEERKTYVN

For `O=C(Nc1ccc(Oc2ccc3[nH]c(NC(=O)c4ccc5[nH]cnc5c4)nc3c2)cc1)Nc1cc(C(F)(F)F)ccc1F` [Example 89, N-(5-(4-((2-Fluoro-5-(trifluoromethyl)phenyl)aminocarbonylamino)phenoxy)-1H-benzimidazol-2-yl)-5-benzimidazolecarboxamide], the 50% inhibitory concentration (IC50) in experiment [1] was less than 100 nM; in experiment [2], less than 100 nM; in experiment [3], less than 100 nM; in experiment [4], 100 to 1000 nM.

On to `COC(=O)Nc1nc2ccc(Oc3ccc(NC(=O)Nc4cc(C(F)(F)F)ccc4F)cc3)cc2n1CCN(C)C` [Example 70, Methyl N-(6-(4-((2-fluoro-5-(trifluoromethyl)phenyl)aminocarbonylamino)phenoxy)-1-(2-(dimethylamino)ethyl)-1H-benzimidazol-2-yl)carbamate], for which the 50% inhibitory concentration (IC50) in experiment [1] was less than 100 nM; in experiment [2], 100 to 1000 nM; in experiment [3] it was less than 100 nM; in experiment [4] it was 1000 to 10000 nM.

`O=C(Cn1nnc(N2CCCC2)n1)Nc1nc2cc(Oc3ccc(NC(=O)Nc4cc(C(F)(F)F)ccc4F)cc3)ccc2[nH]1` [Example 96, N-(5-(4-((2-Fluoro-5-(trifluoromethyl)phenyl)aminocarbonylamino)phenoxy)-1H-benzimidazol-2-yl)(5-(1-pyrrolidino)tetrazol-2-yl)acetamide]: the IC50 in experiment [1] was less than 100 nM; in experiment [2], less than 100 nM; in experiment [3], less than 100 nM; in experiment [4], 100 to 1000 nM.

As for `O=C1CCn2c(nc3ccc(Oc4ccc(NC(=O)Nc5cc(C(F)(F)F)ccc5F)cc4)nc32)N1` [Example 77], the IC50 in experiment [1] was less than 100 nM; in experiment [2], less than 100 nM; in experiment [3], less than 100 nM; in experiment [4] it was 100 to 1000 nM.

With `COC(=O)Nc1nc2cc(Oc3ccc(NC(=O)Nc4cc(Cl)ccc4Cl)cc3)ccc2[nH]1` [Example 45, Methyl N-(5-(4-((2,5-dichlorophenyl)aminocarbonylamino)phenoxy)-1H-benzimidazol-2-yl)carbamate], the IC50 in experiment [1], in experiment [2] and in experiment [3] was less than 100 nM throughout. In experiment [4], the VEGF-C entry was “−”.

With `O=C(Nc1ccc(Oc2ccc3[nH]c(NC(=O)c4ccc(-n5ccnc5)cc4)nc3c2)cc1)Nc1cc(C(F)(F)F)ccc1F` [Example 91, N-(5-(4-((2-Fluoro-5-(trifluoromethyl)phenyl)aminocarbonylamino)phenoxy)-1H-benzimidazol-2-yl)-4-(1H-imidazol-1-yl)benzamide], the IC50 in experiment [1], in experiment [2] and in experiment [3] was less than 100 nM each time. The VEGF-C result in experiment [4] is on record as “−”.

As for `Cn1cnc(CC(=O)Nc2nc3cc(Oc4ccc(NC(=O)Nc5cc(C(F)(F)F)ccc5F)cc4)ccc3[nH]2)c1` [Example 97, N-(5-(4-((2-Fluoro-5-(trifluoromethyl)phenyl)aminocarbonylamino)phenoxy)-1H-benzimidazol-2-yl)(1methyl-1H-imidazol-4-yl)acetamide], the IC50 in experiment [1], in experiment [2], in experiment [3] and in experiment [4] was less than 100 nM throughout.

For `COC(=O)Nc1nc2cc(Oc3ccc(NC(=O)Nc4cc(C(F)(F)F)ccc4Cl)cn3)ccc2[nH]1` [Example 111, Methyl-N-(5-(5-((2-chloro-5-(trifluoromethyl)phenyl)aminocarbonylamino)-2-pyridyloxy)-1H-benzimidazol-2-yl)carbamate], the half-maximal inhibitory concentration (IC50) in experiment [1], in experiment [2] and in experiment [3] was less than 100 nM throughout. For the same compound, in experiment [4], the VEGF-C entry is reported as “−”.

`COC(=O)Nc1nc2nc(Oc3ccc(NC(=O)Nc4cc(C(F)(F)F)ccc4F)cc3)ccc2[nH]1` [Example 69, dihydrochloride]: the IC50 in experiment [1] is less than 100 nM; in experiment [2], less than 100 nM; in experiment [3] it was less than 100 nM; in experiment [4] it was 100 to 1000 nM.

On to `COC(=O)Nc1nc2cc(S(=O)(=O)c3ccc(NC(=O)Nc4cc(C(F)(F)F)ccc4F)cc3)ccc2[nH]1` [Example 12, Methyl N-(5-(4-((2-fluoro-5-(trifluoromethyl)phenyl)aminocarbonylamino)phenylsulfonyl)-1H-benzimidazol-2-yl)carbamate], for which the IC50 in experiment [1] was 100 to 1000 nM; in experiment [2] it was less than 100 nM; in experiment [3], 1000 to 10000 nM. Further, the VEGF-C result in experiment [4] is reported as “−”.

On to `COC(=O)Nc1nc2cc(Oc3cccc(NC(=O)Nc4cc(C(F)(F)F)ccc4F)c3)ccc2[nH]1` [Example 15, Methyl N-(5-(3-((2-Fluoro-5-(trifluoromethyl)phenyl)aminocarbonylamino)phenoxy)-1H-benzimidazol-2-yl)carbamate], for which the half-maximal inhibitory concentration (IC50) in experiment [1] is less than 100 nM; in experiment [2], less than 100 nM; in experiment [3], less than 100 nM; in experiment [4], 100 to 1000 nM.

Regarding `COC(=O)Nc1nc2cc(Oc3ccc(NC(=O)Nc4cc(OC)ccc4OC)cc3)ccc2[nH]1` [Example 42, Methyl N-(5-(4-((2,5-dimethoxyphenyl)aminocarbonylamino)phenoxy)-1H-benzimidazol-2-yl)carbamate], the 50% inhibitory concentration (IC50) in experiment [1] is less than 100 nM; in experiment [2], less than 100 nM; in experiment [3], less than 100 nM; in experiment [4], 100 to 1000 nM.

Regarding `COC(=O)Nc1nc2cc(Oc3ccc(NC(=O)Nc4cc(C)ccc4F)cc3)ccc2[nH]1.Cl` [Example 55, Methyl N-(5-(4-((2-fluoro-5-methylphenyl)aminocarbonylamino)phenoxy)-1H-benzimidazol-2-yl)carbamate hydrochloride], the IC50 in experiment [1], in experiment [2] and in experiment [3] was less than 100 nM each time. Further, the VEGF-C entry in experiment [4] is “−”.

With `O=C(CCc1cccnc1)Nc1nc2cc(Oc3ccc(NC(=O)Nc4cc(C(F)(F)F)ccc4F)cc3)ccc2[nH]1` [Example 88, N-(5-(4-((2-Fluoro-5-(trifluoromethyl)phenyl)aminocarbonylamino)phenoxy)-1H-benzimidazol-2-yl)-3-(pyridine-3-yl)propionamide], the IC50 in experiment [1], in experiment [2], in experiment [3] and in experiment [4] was less than 100 nM throughout.

For the compound `COC(=O)Nc1nc2cc(Oc3ccc(NC(=O)Nc4cc([N+](=O)[O-])ccc4C)cc3)ccc2[nH]1` [Example 47, Methyl N-(5-(4-((2-methyl-5-nitrophenyl)aminocarbonylamino)phenoxy)-1H-benzimidazol-2-yl)carbamate], the half-inhibitory concentration (IC50) in experiment [1], in experiment [2] and in experiment [3] was less than 100 nM throughout. Besides, in experiment [4], the VEGF-C entry was “−”.

As to `COC(=O)Nc1nc2ccc(Oc3ccc(NC(=O)Nc4cc(C(F)(F)F)ccc4F)cc3)cc2s1` [Example 64, Methyl N-(6-(4-((6-fluoro-3-(trifluoromethyl)phenyl)aminocarbonylamino)phenoxy)-benzthiazol-2-yl)carbamate], the IC50 in experiment [1], in experiment [2], in experiment [3] and in experiment [4] was less than 100 nM in each case.

As to `COC(=O)Nc1nc2cc(Oc3ccc(NC(=O)Nc4cccc(C#N)c4)cc3)ccc2[nH]1` [Example 49], the IC50 was 100 to 1000 nM in experiment [1], 100 to 1000 nM in experiment [2] and less than 100 nM in experiment [3]. In experiment [4], the VEGF-C result is “−”.
